Results taken from patent publication US20230014907A1, “INHIBITORS OF APOL1 AND METHODS OF USING SAME” (Vertex Pharmaceuticals Incorporated, priority 2020, published 2023).

How the values were obtained:
APOL1 G1 Protein = target: T1, APOL1 G1 Protein (Homo sapiens, UniProt O14791, I384M/S342G); assay: Trypanosoma brucei brucei Lysis Assay Using APOL1 Recombinant Protein (AlamarBlue viability); assay type: cell-based; details: read-out: Trypanosomal Assay (IC50)
T1 sequence (O14791 28-398 S342G/I384M): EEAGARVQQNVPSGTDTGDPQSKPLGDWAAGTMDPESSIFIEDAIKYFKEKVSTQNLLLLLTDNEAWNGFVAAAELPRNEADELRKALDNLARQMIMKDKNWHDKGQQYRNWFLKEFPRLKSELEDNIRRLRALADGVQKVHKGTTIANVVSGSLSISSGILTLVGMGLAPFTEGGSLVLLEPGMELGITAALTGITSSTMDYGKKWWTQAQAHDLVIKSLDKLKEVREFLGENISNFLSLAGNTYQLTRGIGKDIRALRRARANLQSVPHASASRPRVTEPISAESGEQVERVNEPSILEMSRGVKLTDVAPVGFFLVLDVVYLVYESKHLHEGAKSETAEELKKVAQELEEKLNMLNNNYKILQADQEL
From the text: Trypanosoma brucei brucei is a blood stream parasite to which human, gorillas and baboon are immune due to the presence of the APOL1 protein in their HDL particles. The protein is uptaken by the parasite via the TbHpHb receptor located in its flagellar pocket and is bonded by the Hpr protein contained in the HDL particles which triggers the receptor endocytosis by the parasite.
Following endocytosis, the formed vesicle containing the HDL particle matures from early to late endosome, and subsequently to lysosome. The concomitant pH change in the lumen of the vesicle triggers the insertion of the APOL1 protein into the membrane of the late endosome/lysosome and hereby triggers lysosomal membrane permeabilization and as a further downstream event, trypanosome lysis. Trypanosoma brucei brucei is sensitive to lysis by all three APOL1 variants (G0, G1, and G2).
The Trypanosoma brucei brucei lysis assay is a lysis assay of the parasite using recombinant APOL1 protein variant followed by a fluorescent detection method of viability by the addition of AlamarBlue reagent to the assay well, a general metabolic redox indicator (AlamarBlue assay).
Briefly, the AlamarBlue active compound, the resazurin, a blue, water soluble, non-toxic and cell permeable molecule, which can be followed by absorbance, is reduced by various metabolic pathways into resorufin, a red compound which can be followed by either absorbance or fluorescence. The assay allows the calculation of the percent viability (percent of living Trypanosomes remaining in each well) at the end of a lysis relative to the untreated condition by interpolation of fluorescent values (FLU) on a standard curve with a known amount of seeded trypanosome/well.
Trypanosoma brucei brucei (ATCC, Cat. No. PRA-382) • Lister 427 VSG 221 bloodstream form.
Thaw/Expansion Media (ATCC Medium 2834 Modified HMI-9 Medium)
Assay Media (No Phenol Red/No FBS): Make on Day of Use
Hypoxanthine Stock (100×)-9 (10×)
Equipment • E1-Clip Tip pipette 12 channel adjustable 2-125 μL, Cat. No. 4672070BT • ThermoFisher MultiDrop 384, Cat. No. 5840300 • Multidrop • Agilent Bravo, Cat. No. G5409A • Bravo • SpectraMax M5
Trypanosoma brucei brucei Culture
Step 2, Day 4 • Centrifuge at 800×g for 5 minutes at room temperature. • Resuspend in 1 mL media. • Make a 1:25 fold dilution (10 μL/240 μL media). • Count on a hemocytometer (after adding parasites). • Let sit for 1-2 minutes for the parasites to settle. • Count should be approximately 100 viable motile parasites/16 grid or approximately 25×10^6 parasites/flask. • Passage the parasites by adding 1×10^6 parasites/T75 flask in 20 mL media. • Passage the parasites by adding 2.33×10^6 parasites/T175 flask in 46.6 mL media. • For every T75 flask should make enough for approximately 1.5×384 well assay plates. • For every T175 flask should make enough for approximately 3.8×384 well assay plates.
Step 3, Day 6 • Centrifuge at 800×g for 5 minutes. • Resuspend in 3 mL assay media (No phenol red, no FBS) per 75 starting flask. • Resuspend in 7 mL assay media (No phenol red, no FBS) per 175 flask • Make a 1:25 fold dilution. • Count by hemocytometer. • Every T75 flask set up should have approximately 75×10^6 parasites/flask (verify doubling time=8.7 hours±1 hour). • Every T175 flask set up should have approximately 175×10^6 parasites/flask (verify doubling time=8.7 hours±1 hour). • Require 46×10^6 parasites per 384 well plate (at 120,000 parasites per well). […]

G1 APOL1 = target: T2, G1 APOL1 (Homo sapiens, UniProt O14791, I384M/S342G); assay: Acute APOL1 Thallium Assay with Inducible Stable Clones of HEK 293 Cells; assay type: cell-based; details: HEK 293 inducible stable clones, G1 APOL1; read-out: Thallium Assay (IC50)
T2 construct: expressed in transfected cells
T2 sequence (O14791 28-398 S342G/I384M): T1 sequence (O14791 28-398 S342G/I384M)
Method in brief: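 Pore activity was read as the fluorescence increase from Tl+ entering cells loaded with an AM-ester thallium indicator dye. The cells were tetracycline-inducible HEK293 T-Rex expressing G1 APOL1 (clone DC3.25), induced when plated at 26000 per well and incubated at 37° C.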

| SMILES | IC50 (APOL1 G1 Protein) | IC50 (G1 APOL1) |
| --- | --- | --- |
| C[C@H](CO)NC(=O)CCc1c(-c2ccc(F)cc2)[nH]c2c(F)cc(F)cc12 [Compound 120] | < 250 nM | < 250 nM |
| O=C(CCc1c(-c2ccc(F)cc2)[nH]c2c(F)cc(F)cc12)NC1(C(F)(F)F)CC1 [Compound 129] | > 1000 nM | > 1000 nM |
| O=C(CCc1c(-c2ccc(F)cc2)[nH]c2ccc(F)cc12)N[C@@H](CO)C(F)(F)F [Compound 1, 3-[5-fluoro-2-(4-fluorophenyl)-1H-indol-3-yl]-N-[(1S)-2,2,2-trifluoro-1-(hydroxymethyl)ethyl]propanamide] | < 250 nM | < 250 nM |
| O=C(CCc1c(-c2ccc(F)cc2)[nH]c2c(F)cc(F)cc12)N1CCCC1CCO (centres unmarked) [Compound 136] | > 1000 nM | > 1000 nM |
| CC(C)(NC(=O)CCc1c(-c2ccc(F)cc2)[nH]c2c(F)cc(F)cc12)C(F)(F)F [Compound 182] | > 1000 nM | > 1000 nM |
| CC(=O)NCCCc1c(-c2ccc(F)cc2)[nH]c2c(Cl)cccc12 [Compound 508, N-[3-[7-chloro-2-(4-fluorophenyl)-1H-indol-3-yl]propyl]acetamide] | 250 to 1000 nM | 250 to 1000 nM |
| O=C(CCc1c(-c2ccc(F)cc2)[nH]c2c(F)cc(F)cc12)Nc1ccncc1 [Compound 119] | > 1000 nM | > 1000 nM |
| CC1(N)CCN(C(=O)CCc2c(-c3ccc(F)cc3)[nH]c3ccc(F)cc23)C1 (racemic) [Compound 67] | > 1000 nM | > 1000 nM |
| CN1CC(NC(=O)CCc2c(-c3ccc(F)cc3)[nH]c3ccc(F)cc23)C(=O)N1 (centres unmarked) [Compound 41] | > 1000 nM | > 1000 nM |
| O=C(CCc1c(-c2ccc(F)cc2)[nH]c2c(F)cc(F)cc12)NC(CO)CF (centres unmarked) [Compound 99] | < 250 nM | < 250 nM |
| O=C(CCc1c(-c2ccc(F)cc2)[nH]c2c(F)cc(F)cc12)N1CC[C@H]1CO [Compound 138] | > 1000 nM | > 1000 nM |
| CC(=O)NCC(F)(F)Cc1c(-c2ccc(F)cc2)[nH]c2c(F)cc(F)cc12 [Compound 515, N-[3-[5,7-difluoro-2-(4-fluorophenyl)-1H-indol-3-yl]-2,2-difluoro-propyl]acetamide] | 250 to 1000 nM | 250 to 1000 nM |
| CC(=O)NCCSc1c(-c2ccc(F)cc2)[nH]c2c(F)cc(F)cc12 [Compound 509, N-[2-[[5,7-difluoro-2-(4-fluorophenyl)-1H-indol-3-yl]sulfanyl]ethyl]acetamide] | < 250 nM | < 250 nM |
| O=C(CCc1c(-c2ccc(F)cc2)[nH]c2c(F)cc(F)cc12)Nc1ccon1 [Compound 160] | > 1000 nM | > 1000 nM |
| O=C(CCc1c(-c2ccc(F)cc2)[nH]c2ccc(F)cc12)NCC1(O)CCC1 [Compound 64] | > 1000 nM | > 1000 nM |
| O=C(CCc1c(-c2ccc(F)cc2)[nH]c2ccc(F)cc12)NC1CC1(F)F (centres unmarked) [Compound 45] | > 1000 nM | 250 to 1000 nM |
| O=C(CCc1c(-c2ccc(F)cc2)[nH]c2ccc(F)cc12)N[C@H]1C[C@@H](O)C1 [Compound 87] | > 1000 nM | > 1000 nM |
| NCC1CCCCN1C(=O)CCc1c(-c2ccc(F)cc2)[nH]c2ccc(F)cc12 (centres unmarked) [Compound 53] | > 1000 nM | > 1000 nM |
| CC(C)(C)OC(=O)N1C[C@H](NC(=O)CCc2c(-c3ccc(F)cc3)[nH]c3ccc(F)cc23)[C@@H](O)C1 [Compound 76] | > 1000 nM | > 1000 nM |
| O=C(CCc1c(-c2ccc(F)cc2)[nH]c2c(F)cc(F)cc12)NCC1(CO)COC1 [Compound 140] | > 1000 nM | > 1000 nM |

| SMILES | IC50 (APOL1 G1 Protein) | IC50 (G1 APOL1) |
| --- | --- | --- |
| O=C(CCc1c(-c2ccc(F)cc2)[nH]c2c(F)cc(F)cc12)Nc1nnco1 [Compound 151] | > 1000 nM | > 1000 nM |
| CNC(=O)C(C)NC(=O)CCc1c(-c2ccc(F)cc2)[nH]c2ccc(F)cc12 (racemic) [Compound 11] | 250 to 1000 nM | 250 to 1000 nM |
| CC(C)(C)OC(=O)NC1CCCN(C(=O)CCc2c(-c3ccc(F)cc3)[nH]c3ccc(F)cc23)C1 (centres unmarked) [Compound 66] | > 1000 nM | > 1000 nM |
| O=C(/C=C/c1c(-c2ccc(F)cc2)[nH]c2c(F)cc(F)cc12)N[C@@H]1C(=O)NC[C@H]1O [Compound 518, (E)-3-[5,7-difluoro-2-(4-fluorophenyl)-1H-indol-3-yl]-N-[(3S,4R)-4-hydroxy-2-oxo-pyrrolidin-3-yl]prop-2-enamide] | < 250 nM | < 250 nM |
| O=C(CCc1c(-c2ccc(F)cc2)[nH]c2c(F)cc(F)cc12)NC1(C(F)(F)F)CCC1 [Compound 161] | > 1000 nM | > 1000 nM |
| O=C(CCc1c(-c2ccc(F)cc2)[nH]c2c(F)cc(F)cc12)Nc1nc(C(F)(F)F)co1 [Compound 171] | > 1000 nM | > 1000 nM |
| O=C(CCc1c(-c2ccc(F)cc2)[nH]c2c(F)cc(F)cc12)N[C@H]1CC[C@H](O)C1 [Compound 135] | > 1000 nM | > 1000 nM |
| CC(O)C(C)NC(=O)CCc1c(-c2ccc(F)cc2)[nH]c2ccc(F)cc12 (mixture of isomers) [Compound 35] | > 1000 nM | > 1000 nM |
| O=C(CCc1c(-c2ccc(F)cc2)[nH]c2ccc(F)cc12)Nc1cc[nH]n1 [Compound 70] | > 1000 nM | 250 to 1000 nM |
| CNC(=O)CCc1c(-c2ccc(F)cc2)[nH]c2ccc(F)cc12 [Compound 73] | > 1000 nM | > 1000 nM |
| O=C(CCc1c(-c2ccccc2)[nH]c2ccc(F)cc12)NCCO [Compound 236] | > 1000 nM | > 1000 nM |
| O=C(CCc1c(-c2ccc(F)cc2)[nH]c2ccc(F)cc12)NCC(F)(F)F [Compound 39] | > 1000 nM | 250 to 1000 nM |
| C[C@@H](O)CNC(=O)CCc1c(-c2ccc(F)cc2)[nH]c2ccc(F)cc12 [Compound 79] | > 1000 nM | > 1000 nM |
| CC(C)(C)OC(=O)N[C@H]1C[C@@H](NC(=O)CCc2c(-c3ccc(F)cc3)[nH]c3ccc(F)cc23)C1 [Compound 83] | > 1000 nM | > 1000 nM |
| O=C(CCc1c(-c2ccc(F)cc2)[nH]c2ccc(F)cc12)NCCCO [Compound 85] | > 1000 nM | > 1000 nM |
| O=C(CCc1c(-c2ccc(F)cc2)[nH]c2c(F)cc(F)cc12)Nc1cnoc1 [Compound 146] | > 1000 nM | > 1000 nM |
| O=C(CCc1c(-c2ccc(F)cc2)[nH]c2ccc(F)cc12)NC1(c2ccccc2)CC1 [Compound 65] | > 1000 nM | > 1000 nM |
| O=C(CCc1c(-c2ccc(F)cc2)[nH]c2c(F)cc(Br)cc12)N[C@@H](CO)C(F)(F)F [Compound 229] | < 250 nM | 250 to 1000 nM |
| Cc1cnc(NC(=O)CCc2c(-c3ccc(F)cc3)[nH]c3c(F)cc(F)cc23)o1 [Compound 172] | > 1000 nM | > 1000 nM |
| O=C(CCc1c(-c2ccc(F)cc2)[nH]c2ccc(F)cc12)NCC1(O)CC1 [Compound 82] | > 1000 nM | > 1000 nM |
